“Also recorded” adds a separate entry of the source. Peptide text beside a SMILES is read from it.
Columns and labels:
[1] = system: medium spiny neurons (MSNs) in the nucleus accumbens; experiment: Brain slice patch-clamp: intrinsic excitability and passive properties of MSNs; format: cell-based, male C57BL6/J mice
Procedure: Brain slices from male C57BL6/J mice aged 28–45 days were prepared to contain the nucleus accumbens (NAc). Mice were anesthetized with Isoflurane (Baxter, Deerfield, IL) and brains extracted following decapitation. Brains were sliced with a vibratome (Leica Microsystems, Wetzlar, Germany) to achieve 300 μm coronal slices. Brains sliced in extracellular salts; consisting of the following (mM): Tris‐HCl 72, Tris‐Base18, NaH2PO4 1.2, KCl 2.5, HEPES 20, sucrose 20, NaHCO3 25, glucose 25, MgSO4 10, Na‐pyruvate 3, Na‐ascorbate 5 and CaCl2 0.5 (Sigma‐Aldrich, St. Louis, MO); 300–310 mOsm, pH 7.4 and was continuously oxygenated (mixture of 95%/5% O2/CO2). Slices were then placed in a 32°C recovery chamber with freshly prepared tris‐based aCSF for 15 min before transfer to a 32°C chamber of standard aCSF consisting of the following extracellular salts (mM): NaCl 123.9, KCl 3.1, glucose 10, MgCl2 1, CaCl2 2, NaHCO3 24, and NaH2PO4 1.16 (Sigma‐Aldrich, St. Louis, MO); 300–310 mOsm, pH 7.4 and continuously oxygenated (mixture of 95%/5% O2/CO2). Finally, slices were equilibrated at RT for at least 45 min. DMSO and/or FLPK were added to standard aCSF to achieve a bath concentration of 0.1% DMSO and 50 μM FLPK. Brain slices were incubated in a separate chamber with standard aCSF containing 0.1% DMSO (control) or 50 μM FLPK and continuously oxygenated for 30 min. Somatic recordings from NAc visually identified medium spiny neurons (MSNs) in standard aCSF were carried out at 31°C using borosilicate glass pipettes (resistance of 3–5 MΩ) filled with an internal solution containing (mM): D‐gluconate (potassium salt) 145, MgCl2 2, EGTA 0.1, Na2ATP 2, and HEPES 10 (pH 7.2; 290 mOsm). Either an Axopatch 200B or a Multiclamp 700B amplifier was used to perform whole‐cell patch clamp experiments. For the Axopatch 200B, a digidata 1,200 analog–digital interface and pClamp 9 software with filtering at 20 kHz and digitizing at 5 kHz were used for data acquisition and stimulation. For the Multiclamp 700B, a digidata 1,350 analog‐digital interface and pClamp 10.9 with filtering at 20 kHz and digitizing at 5 kHz were used for data acquisition and stimulation. First a giga‐seal was formed and the cell membrane ruptured after which MSNs were held in […] for 1 min to measure resting membrane potential. Next, MSNs were held in current clamp mode to assess cell activity. Evoked action potentials with a range of current injections from 10 pA to 220 pA with 800 ms every 10 pA were measured and number of action potentials, instantaneous frequency, and other electrical parameters were determined. Average instantaneous firing frequency (IFF) is defined as the average of all reciprocal interspike intervals (ms) at a particular current step. Cells with a current threshold above 180 pA, a resting membrane potential above −60 mV, and an input resistance outside the range of 70–250 MΩ were excluded. To isolate persistent Na^+ current (I NaP) in whole‐cell voltage‐clamp recordings, we used a modified aCSF containing 20 mM tetraethylammonium chloride (TEA) and 0.3 mM CdCl2. The voltage‐dependence of I NaP was determined using standard protocols (Yue, Remy, Su, Beck, & Yaari, 2005). Membrane capacitances and Rseries were compensated electronically. Series resistances (Rs) before compensation were in the range of 5–20 MΩ and were routinely corrected by 75%–85%. Data obtained from a given cell were rejected if Rs was larger than 20 MΩ or changed by > 20% during the course of the experiment. Membrane capacitance was calculated using the equation: capacitance = membrane time constant/input resistance (Meitzen, Weaver, Brenowitz, & Perkel, 2009). The membrane input resistance was measured by a series of 600 ms hyperpolarizing current steps from −50 to 0 pA, step 10 pA with 1 s interval. The slope of the current‐voltage curve was designated as the membrane input resistance. […]

[2] = system: persistent sodium current (I NaP) from MSNs in the nucleus accumbens; experiment: Brain slice voltage-clamp: persistent Na^+ current (I NaP) in MSNs; format: cell-based, male C57BL6/J mice
Procedure: Brain slices from male C57BL6/J mice aged 28–45 days were prepared to contain the nucleus accumbens (NAc). Mice were anesthetized with Isoflurane (Baxter, Deerfield, IL) and brains extracted following decapitation. Brains were sliced with a vibratome (Leica Microsystems, Wetzlar, Germany) to achieve 300 μm coronal slices. Brains sliced in extracellular salts; consisting of the following (mM): Tris‐HCl 72, Tris‐Base18, NaH2PO4 1.2, KCl 2.5, HEPES 20, sucrose 20, NaHCO3 25, glucose 25, MgSO4 10, Na‐pyruvate 3, Na‐ascorbate 5 and CaCl2 0.5 (Sigma‐Aldrich, St. Louis, MO); 300–310 mOsm, pH 7.4 and was continuously oxygenated (mixture of 95%/5% O2/CO2). […] Evoked action potentials with a range of current injections from 10 pA to 220 pA with 800 ms every 10 pA were measured and number of action potentials, instantaneous frequency, and other electrical parameters were determined. […] The voltage‐dependence of I NaP was determined using standard protocols (Yue, Remy, Su, Beck, & Yaari, 2005). […] Membrane capacitance was calculated using the equation: capacitance = membrane time constant/input resistance (Meitzen, Weaver, Brenowitz, & Perkel, 2009). The membrane input resistance was measured by a series of 600 ms hyperpolarizing current steps from −50 to 0 pA, step 10 pA with 1 s interval. […]

CC(=O)N[C@@H](Cc1ccccc1)C(=O)N[C@@H](CC(C)C)C(=O)N1CCC[C@H]1C(=O)N[C@@H](CCCCN)C(N)=O [FLPK] (Ac-FLPK-NH2)
effect on MSN firing and passive properties ([1]; 50 µM FLPK vs 0.1% DMSO): significantly increased the number of evoked action potentials and the instantaneous firing frequency; also recorded: no changes in several other electrophysiological parameters including membrane potential and input resistance; also recorded: increase in the total number of action potentials as well as instantaneous firing frequency
Tau (τ), membrane time constant ([1]; 50 µM FLPK, 30 min incubation, mean ± SEM, n = 5–12, DMSO 16.1 ± 2.1, p = .157): 11.9 ± 1.6 ms
Cm ([1]; 50 µM FLPK, 30 min incubation, mean ± SEM, n = 5–12, DMSO 90.2 ± 14.5, p = .521): 80.1 ± 7.6 pF
Ithr ([1]; 50 µM FLPK, 30 min incubation, mean ± SEM, n = 5–12, DMSO 110 ± 14.2, p = .221): 78 ± 18.3 pA
Rin ([1]; 50 µM FLPK, 30 min incubation, mean ± SEM, n = 5–12, DMSO 119.1 ± 10.3, p = .088): 147.2 ± 11.3 MΩ
Vthr ([1]; 50 µM FLPK, 30 min incubation, mean ± SEM, n = 5–12, DMSO −40.5 ± 1.1, p = .422): −38.7 ± 2.2 mV
RMP ([1]; 50 µM FLPK, 30 min incubation, mean ± SEM, n = 5–12, DMSO −75.3 ± 1.5, p = .125): −79.7 ± 2.6 mV
number of evoked action potentials ([1]; 50 µM FLPK, current step 180 pA, n = 7, DMSO 14.9 ± 2.3, n = 14, p < .016): 23.7 ± 1.2
instantaneous firing frequency ([1]; 50 µM FLPK, current step 180 pA, n = 7, DMSO 19.7 ± 2.6 Hz, n = 14, p < .0395): 28.6 ± 2.1 Hz
effect on I NaP ([2]; 50 µM FLPK vs 0.1% DMSO): increase in persistent sodium current; also recorded: potentiated persistent Na^+ currents
persistent sodium current (I NaP) ([2]; 50 µM FLPK, slow voltage ramps (50 mV/s), TTX-subtracted, control 111.4 ± 15.7 pA, p < .03, n = 14): −158.2 ± 14.2 pA
